Results from EP1060162B1, “URETHANES DERIVED FROM AZACYCLOALKANES, THIO AND DITHIO ANALOGUES, PRODUCTION AND USE THEREOF AS 2,3 EPOXYSQUALENE LANESTEROL CYCLASE INHIBITORS” (Boehringer Ingelheim Pharma KG, priority 1997, dated 1999).
Structures can show the parent of a compound that is named as a salt. Where two headings read alike, the source gives them in different places.

Experiments:
[1] = tested on: 2,3-Epoxisqualen-Lanosterol-Cyclase; experiment: In-vivo effect in the rat after oral administration: 2,3-epoxysqualene level in the liver; set-up: species or system Ratte
Protocol: II. Messung der in-vivo Wirkung an der Ratte nach oraler Gabe
Die Inhibierung des Enzyms 2,3-Epoxisqualen-Lanosterol-Cyclase bewirkt eine Erhöhung der 2,3-Epoxisqualenspiegel in Leber und Plasma. Die Menge an gebildetem 2,3-Epoxisqualen dient daher als direktes Maß für die Wirkstärke am Ganztier.Die Bestimmung wurde nach der in J. Lipid. Res. 38, 564-575, [1997] beschriebenen Methode nach t = 3 bzw. 8 Stunden nach Substanzgabe mit Konzentrationen von c = 0.01, 0.03, 0.1, 0.3 und 1.0 mg/kg durchgeführt. In der folgenden Tabelle 3 sind beispielhaft die Ergebnisse für die vorstehend erwähnten Substanzen A, B, C, D, E, G, H, I und K angegeben.

[2] = tested on: Cand. albicans ATCC 10231; experiment: Fungistatic effect, serial dilution test (microtitre system); format: cell-based; conditions: Candida albicans
Protocol: (§1) IV. Bestimmung der fungistatischen Wirkung
(§2) Die fungistatische Wirkung wurde über den Reihenverdünnungstest (Mikrotitersystem) bestimmt. Als Nährmedium diente Sabouraud-Bouillon. Das Inoculum betrug ca. 10^4 bis 10^5 KBE/ml (KBE = koloniebildende Einheiten); die Bebrütungszeit betrug 2 bis 4 Tage bei 26°C.
(§3) Es wurde die niedrigste Konzentration, die sichtbares Wachstum nicht mehr zuließ (minimale Hemmkonzentration MHK), bestimmt.
(§4) Geprüft wurden die vorstehend erwähnten Verbindungen A, B, D, E, F, H, I, K, L und M. Die Ergebnisse sind in der folgenden Tabelle 5 zusammengefaßt. Die MHK ist in µg/ml angegeben.

[3] = tested on: Sacch. carlsbergensis ATCC 9080; experiment: as above; format: cell-based; conditions: Saccharomyces pastorianus
Protocol: as §1, §2, §3, §4

Pen.notatum CBS 19746 = experiment: as above; format: cell-based; conditions: Penicillium chrysogenum
Protocol: as §1, §2, §3, §4

[4] = tested on: Trich. mentagrophytes ATCC 9129; experiment: as above; format: cell-based; conditions: Trichophyton mentagrophytes
Protocol: as §1, §2, §3, §4

Rhod. rubra 49 = experiment: as above; format: cell-based; conditions: read-out: MHK
Protocol: as §1, §2, §3, §4

Asp. niger ATCC 16404 = experiment: as above; format: cell-based; conditions: Aspergillus niger
Protocol: as §1, §2, §3, §4

[5] = Lipid lowering in the normolipaemic golden hamster; format: in vivo, Goldhamster; conditions: compared with control group fed without test substance
Description: III. Lipidsenkung am normolipämischen Goldhamster.
Diese Bestimmung wurde nach der in J. Lipid. Res. 38, 564-575, (1997) beschriebenen Methode durchgeführt. Am Ende des Versuchs wurde Gesamtcholesterol, β-Lipoprotein-Cholesterol sowie HDL-Cholesterol bestimmt und mit den Werten einer ohne Testsubstanz gefütterten Kontrollgruppe verglichen.

[6] = molecular target: T1, ^14C-Acetat-Einbau in die mit Digitonin fällbaren Steroide (Homo sapiens, UniProt P48449); experiment: Inhibition of 14C-acetate incorporation into digitonin-precipitable steroids; format: cell-based; conditions: read-out: Prozentwerte, um die die Verbindungen den ^14C-Acetat-Einbau hemmen
T1 sequence (P48449 2-732): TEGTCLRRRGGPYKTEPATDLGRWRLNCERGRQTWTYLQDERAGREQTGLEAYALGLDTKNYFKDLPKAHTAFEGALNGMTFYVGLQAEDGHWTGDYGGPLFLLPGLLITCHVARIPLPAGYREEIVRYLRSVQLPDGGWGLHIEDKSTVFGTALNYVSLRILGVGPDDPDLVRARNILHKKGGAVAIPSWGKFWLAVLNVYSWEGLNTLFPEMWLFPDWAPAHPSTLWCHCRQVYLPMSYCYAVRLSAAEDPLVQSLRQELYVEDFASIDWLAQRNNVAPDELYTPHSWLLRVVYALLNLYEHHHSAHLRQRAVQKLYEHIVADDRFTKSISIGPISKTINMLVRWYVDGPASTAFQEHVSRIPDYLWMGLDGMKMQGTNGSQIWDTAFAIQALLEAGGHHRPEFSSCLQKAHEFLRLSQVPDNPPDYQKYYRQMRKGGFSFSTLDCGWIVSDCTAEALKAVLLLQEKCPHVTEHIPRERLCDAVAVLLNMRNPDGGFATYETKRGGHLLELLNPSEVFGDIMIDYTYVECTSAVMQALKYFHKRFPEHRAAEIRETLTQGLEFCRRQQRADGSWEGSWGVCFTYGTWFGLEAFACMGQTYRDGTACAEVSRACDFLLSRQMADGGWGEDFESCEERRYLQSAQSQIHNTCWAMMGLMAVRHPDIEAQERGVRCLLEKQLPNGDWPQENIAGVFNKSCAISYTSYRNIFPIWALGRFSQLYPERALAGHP
Description: I. Messung der Hemmung des ^14C-Acetat-Einbaus in die mit Digitonin fällbaren Steroide:
Die Untersuchung der Hemmwirkung wurde nach der in J. Lipid. Res. 37, 148-157 [1996] beschriebenen Methode bei Testkonzentrationen von 10^-8 und 10^-9 Mol/l durchgeführt.
Die Prozentwerte, um die obigen Verbindungen den ^14C-Acetat-Einbau hemmen, sind in Tabelle 1 angegeben.

SMILES: CN(C)Cc1ccc(CC2CCN(C(=O)Oc3ccc(Cl)cc3)CC2)cc1 [Verbindung H, N-(4-Chlorphenoxy)carbonyl-4-[4-(dimethylaminomethyl)-benzyl]piperidin-hydrochlorid]
- 2,3-Epoxysqualen-Konzentration in der Leber (Ratte) ([1]; c = 0.1 mg/kg, t = 3 h): 1.0 µg/g
- 2,3-Epoxysqualen-Konzentration in der Leber (Ratte) ([1]; c = 0.1 mg/kg, t = 8 h): 0.8 µg/g
- 2,3-Epoxysqualen-Konzentration in der Leber (Ratte) ([1]; c = 1.0 mg/kg, t = 3 h): 56.3 µg/g
- 2,3-Epoxysqualen-Konzentration in der Leber (Ratte) ([1]; c = 1.0 mg/kg, t = 8 h): 20.7 µg/g
- MIC ([2]; ATCC10231, read-out: MHK): 64 µg/mL
- MIC ([3]; ATCC9080, read-out: MHK): 128 µg/mL
- MIC (Pen.notatum CBS 19746; CBS19746, read-out: MHK): 64 µg/mL
- MIC ([4]; ATCC9129, read-out: MHK): 1 µg/mL
- MIC (Rhod. rubra 49): 16 µg/mL
- MIC (Asp. niger ATCC 16404; ATCC16404, read-out: MHK): 32 µg/mL
- Gesamtcholesterol ([5]; Dosis 6.5 mg/kg/Tag): -8.3%
- HDL-Cholesterol ([5]; Dosis 6.5 mg/kg/Tag): -3.4%
- β-Lipoprotein-Cholesterol ([5]; Dosis 6.5 mg/kg/Tag): -13.0%
- Gesamtcholesterol ([5]; Dosis 19.9 mg/kg/Tag): -11.0%
- HDL-Cholesterol ([5]; Dosis 19.9 mg/kg/Tag): -8.2%
- β-Lipoprotein-Cholesterol ([5]; Dosis 19.9 mg/kg/Tag): -13.2%
- Gesamtcholesterol ([5]; Dosis 62.3 mg/kg/Tag): -32.1%
- HDL-Cholesterol ([5]; Dosis 62.3 mg/kg/Tag): -28.5%
- β-Lipoprotein-Cholesterol ([5]; Dosis 62.3 mg/kg/Tag): -33.7%
- inhibition at 0.001 µM [6]: 45%
- inhibition at 0.01 µM [6]: 80%

SMILES: CN(C)Cc1ccc(CC2CCN(C(=O)OCc3ccccc3)CC2)cc1.Cl [Verbindung I, N-Benzyloxycarbonyl-4-[4-(dimethylaminomethyl)benzyl]-piperidin-hydrochlorid]
- 2,3-Epoxysqualen-Konzentration in der Leber (Ratte) ([1]; c = 0.1 mg/kg, t = 3 h): 1.0 µg/g
- 2,3-Epoxysqualen-Konzentration in der Leber (Ratte) ([1]; c = 1.0 mg/kg, t = 3 h): 26.1 µg/g
- 2,3-Epoxysqualen-Konzentration in der Leber (Ratte) ([1]; c = 1.0 mg/kg, t = 8 h): 10.0 µg/g
- MIC ([2]; ATCC10231, Cand., Sabouraud-Bouillon, 2 bis 4 Tage bei 26°C, read-out: MHK): 256 µg/mL
- MIC ([3]; ATCC9080, Sacc., Sabouraud-Bouillon, 2 bis 4 Tage bei 26°C, read-out: MHK): 512 µg/mL
- MIC (Pen.notatum CBS 19746; CBS19746, Pen., Sabouraud-Bouillon, 2 bis 4 Tage bei 26°C, read-out: MHK): 128 µg/mL
- MIC ([4]; ATCC9129, Trich., Sabouraud-Bouillon, 2 bis 4 Tage bei 26°C, read-out: MHK): 4 µg/mL
- MIC (Rhod. rubra 49; Rhod., Sabouraud-Bouillon, 2 bis 4 Tage bei 26°C): 64 µg/mL
- MIC (Asp. niger ATCC 16404; ATCC16404, Asp., Sabouraud-Bouillon, 2 bis 4 Tage bei 26°C, read-out: MHK): 64 µg/mL
- Gesamtcholesterol ([5]; Dosis 47.1 mg/kg/Tag): -23.1%
- HDL-Cholesterol ([5]; Dosis 47.1 mg/kg/Tag): -17.6%
- β-Lipoprotein-Cholesterol ([5]; Dosis 47.1 mg/kg/Tag): -32.9%
- inhibition at 0.01 µM ([6]; Testkonzentration 10^-8 Mol/l): 85%
- inhibition at 0.001 µM ([6]; Testkonzentration 10^-9 Mol/l): 47%

SMILES: Cc1ccc(OC(=O)N2CCC(Cc3ccc(CN(C)C)cc3)CC2)cc1.Cl [K, 4-[4-(Dimethylaminomethyl)benzyl] -N-(4-methylphenoxy)-carbonylpiperidin-hydrochlorid]
- 2,3-Epoxysqualen-Konzentration in der Leber (Ratte) ([1]; c = 0.1 mg/kg, t = 3 h): 0.4 µg/g
- 2,3-Epoxysqualen-Konzentration in der Leber (Ratte) ([1]; c = 0.1 mg/kg, t = 8 h): 0.4 µg/g
- 2,3-Epoxysqualen-Konzentration in der Leber (Ratte) ([1]; c = 1.0 mg/kg, t = 3 h): 24.0 µg/g
- 2,3-Epoxysqualen-Konzentration in der Leber (Ratte) ([1]; c = 1.0 mg/kg, t = 8 h): 5.5 µg/g
- MIC ([2]; ATCC10231, read-out: MHK): 64 µg/mL
- MIC ([3]; ATCC9080, read-out: MHK): 512 µg/mL
- MIC (Pen.notatum CBS 19746; CBS19746, read-out: MHK): 256 µg/mL
- MIC ([4]; ATCC9129, read-out: MHK): 8 µg/mL
- MIC (Rhod. rubra 49): 64 µg/mL
- MIC (Asp. niger ATCC 16404; ATCC16404, read-out: MHK): 64 µg/mL
- Gesamtcholesterol ([5]; Dosis 54.2 mg/kg/Tag): -6.8%
- HDL-Cholesterol ([5]; Dosis 54.2 mg/kg/Tag): 2.3%
- β-Lipoprotein-Cholesterol ([5]; Dosis 54.2 mg/kg/Tag): -21.2%
- inhibition at 0.001 µM [6]: 49%
- inhibition at 0.01 µM [6]: 82%
